Reference: patent US9533991B2, “Inhibitors of Bruton's tyrosine kinase” (PHARMACYCLICS LLC, priority 2014, dated 2017)

What was measured:
Format in all cases: biochemical
JAK3 = biological target: T1, JAK3 (Homo sapiens, UniProt P52333); assay: Inhibition of a panel of kinases: JAK3; conditions: kinase panel, Table 2
T1 sequence (P52333 1-1124): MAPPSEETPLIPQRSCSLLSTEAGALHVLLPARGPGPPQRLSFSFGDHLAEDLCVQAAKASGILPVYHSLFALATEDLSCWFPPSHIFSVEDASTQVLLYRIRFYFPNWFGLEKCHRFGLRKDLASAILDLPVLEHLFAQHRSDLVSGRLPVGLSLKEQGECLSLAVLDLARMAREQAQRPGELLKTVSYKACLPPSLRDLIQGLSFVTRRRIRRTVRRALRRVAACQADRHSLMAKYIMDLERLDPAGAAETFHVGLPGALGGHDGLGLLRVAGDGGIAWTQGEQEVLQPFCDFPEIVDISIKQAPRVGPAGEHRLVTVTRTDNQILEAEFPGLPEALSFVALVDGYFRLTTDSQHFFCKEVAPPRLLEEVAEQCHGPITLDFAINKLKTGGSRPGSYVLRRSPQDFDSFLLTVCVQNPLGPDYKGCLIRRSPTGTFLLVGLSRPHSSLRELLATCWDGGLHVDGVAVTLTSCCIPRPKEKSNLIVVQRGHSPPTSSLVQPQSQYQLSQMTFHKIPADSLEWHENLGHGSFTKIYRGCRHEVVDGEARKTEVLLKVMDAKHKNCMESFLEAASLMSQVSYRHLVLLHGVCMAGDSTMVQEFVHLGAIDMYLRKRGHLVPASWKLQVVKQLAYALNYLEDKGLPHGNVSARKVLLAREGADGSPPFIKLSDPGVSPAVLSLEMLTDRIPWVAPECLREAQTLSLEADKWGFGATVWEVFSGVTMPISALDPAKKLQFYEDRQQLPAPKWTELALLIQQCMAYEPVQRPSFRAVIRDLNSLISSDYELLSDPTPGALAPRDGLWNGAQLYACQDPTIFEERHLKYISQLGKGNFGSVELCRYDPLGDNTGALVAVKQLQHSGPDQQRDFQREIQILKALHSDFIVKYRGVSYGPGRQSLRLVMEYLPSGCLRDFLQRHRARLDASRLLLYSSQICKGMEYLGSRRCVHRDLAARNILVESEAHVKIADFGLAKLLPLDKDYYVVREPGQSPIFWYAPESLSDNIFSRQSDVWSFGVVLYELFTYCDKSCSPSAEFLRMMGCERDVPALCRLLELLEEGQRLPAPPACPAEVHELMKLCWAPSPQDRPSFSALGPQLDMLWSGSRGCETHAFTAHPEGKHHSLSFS
Protocol: (§1) The degree of inhibition of a panel of kinases is determined using assays similar to the kinase assay described in Example 53.

Btk [1] = biological target: T2, Btk (Homo sapiens, UniProt Q06187); assay: Inhibition of a panel of kinases: Btk; conditions: kinase panel, Table 2
Protocol: as §1

Btk [2] = biological target: T2, Btk; assay: Btk in vitro inhibitory activity (Method A, B or C); set-up: purified from insect cells as a full-length construct containing a N-terminal 6×-His tag; His6 (N); made in house; host or cells: insect cells (baculovirus, Sf21); conditions: one of the methods of Example 53a, 53b, 53c
Protocol: Btk kinase activity is determined using a time-resolved fluorescence resonance energy transfer (TR-FRET) methodology. Measurements are performed in a reaction volume of 50 μL using 96-well assay plates. Kinase enzyme, inhibitor, ATP (at the Km for the kinase), and 1 μM peptide substrate (Biotin-AVLESEEELYSSARQ-NH2 (SEQ ID NO: 1)) are incubated in a reaction buffer composed of 20 mM Tris, 50 mM NaCl, MgCl2 (5-25 mM depending on the kinase), MnCl2 (0-10 mM), 1 mM DTT, 0.1 mM EDTA, 0.01% bovine serum albumin, 0.005% Tween-20, and 10% DMSO at pH 7.4 for one hour. The reaction is quenched by the addition of 1.2 equivalents of EDTA (relative to divalent cation) in 25 μL of 1× Lance buffer (Perkin-Elmer). Streptavidin-APC (Perkin-Elmer) and Eu-labeled p-Tyr100 antibody (Perkin-Elmer) in 1× Lance buffer are added in a 25 μL volume to give final concentrations of 100 nM and 2.5 nM, respectively, and the mixture is allowed to incubate for one hour. The TR-FRET signal is measured on a multimode plate reader with an excitation wavelength (λEx) of 330 nm and detection wavelengths (λEm) of 615 and 665 nm. Activity is determined by the ratio of the fluorescence at 665 nm to that at 615 nm. For each compound, enzyme activity is measured at various concentrations of compound. Negative control reactions are performed in the absence of inhibitor in replicates of six, and two no-enzyme controls are used to determine baseline fluorescence levels. Inhibition constants, Ki(app), ware obtained using the program BatchKi (Kuzmic et al. (2000), Anal. Biochem. 286:45-50). IC50s are obtained according to the equation: IC50={Ki(app)/1+[ATP]/Km^ATP)}+[E]total/2;
For all kinases, [ATP]=Km^ATP, [Btk]total=0.5 nM and [Lck]total=6 nM.
Kinase activity is measured in vitro using electrophoretic mobility shift assay. The kinase reactions are assembled in a total volume of 25 μL in 384 well plates. The reactions comprise: BTK enzyme (1 nM, N-terminal His6-tagged, recombinant, full-length, human BTK purified from baculovirus Sf21 insect cell system), inhibitor, ATP (16 μM, the apparent Km for the kinase), fluorescently labeled peptide substrate (1 μM, FAM-GEEPLYWSFPAKKK-NH2 (SEQ ID NO: 2)) in a reaction buffer composed of 100 mM HEPES, pH7.5, 5 mM MgCl2 1 mM DTT, 0.1% bovine serum albumin, 0.01% Triton X-100, and 1% DMSO. The reaction is incubated for one hour and is quenched by the addition of 45 μL of termination buffer (100 mM HEPES, pH7.5, 0.01% Triton X-100, 30 mM EDTA). The terminated reactions are analyzed using 12 channel LabChip® 3000 microfluidic detection instrument (Caliper Life Sciences). The enzymatic phosphorylation of the peptide results in a change in net charge, enabling electrophoretic separation of product from substrate peptide. As substrate and product peptides are separated, two peaks of fluorescence are observed. Change in the relative fluorescence intensity of the substrate and product peaks is the parameter measured, reflecting enzyme activity. In the presence of an inhibitor, the ratio between product and substrate is altered: the signal of the product decreases, while the signal of the substrate increases.
Activity in each sample is determined as the product to sum ratio (PSR):P/(S+P), where P is the peak height of the product peptide and S is the peak height of the substrate peptide. For each compound, enzyme activity is measured at various concentrations (12 concentrations of compound spaced by 3× dilution intervals). Negative control samples (0%−inhibition in the absence of inhibitor) and positive control samples (100%−inhibition, in the presence of 20 mM EDTA) are assembled in replicates of four and are used to calculate %−inhibition values for each inhibitor at each concentration. Percent inhibition (Pinh) is determined using following equation: […]

EGFR = EGFR (Homo sapiens, UniProt P00533); assay: Inhibition of a panel of kinases: EGFR; conditions: kinase panel, Table 2
Protocol: as §1

LCK = LCK (Homo sapiens, UniProt P06239); assay: Inhibition of a panel of kinases: LCK; conditions: kinase panel, Table 2
Protocol: as §1

Chain of EGFR (P00533 25-1210, species assumed): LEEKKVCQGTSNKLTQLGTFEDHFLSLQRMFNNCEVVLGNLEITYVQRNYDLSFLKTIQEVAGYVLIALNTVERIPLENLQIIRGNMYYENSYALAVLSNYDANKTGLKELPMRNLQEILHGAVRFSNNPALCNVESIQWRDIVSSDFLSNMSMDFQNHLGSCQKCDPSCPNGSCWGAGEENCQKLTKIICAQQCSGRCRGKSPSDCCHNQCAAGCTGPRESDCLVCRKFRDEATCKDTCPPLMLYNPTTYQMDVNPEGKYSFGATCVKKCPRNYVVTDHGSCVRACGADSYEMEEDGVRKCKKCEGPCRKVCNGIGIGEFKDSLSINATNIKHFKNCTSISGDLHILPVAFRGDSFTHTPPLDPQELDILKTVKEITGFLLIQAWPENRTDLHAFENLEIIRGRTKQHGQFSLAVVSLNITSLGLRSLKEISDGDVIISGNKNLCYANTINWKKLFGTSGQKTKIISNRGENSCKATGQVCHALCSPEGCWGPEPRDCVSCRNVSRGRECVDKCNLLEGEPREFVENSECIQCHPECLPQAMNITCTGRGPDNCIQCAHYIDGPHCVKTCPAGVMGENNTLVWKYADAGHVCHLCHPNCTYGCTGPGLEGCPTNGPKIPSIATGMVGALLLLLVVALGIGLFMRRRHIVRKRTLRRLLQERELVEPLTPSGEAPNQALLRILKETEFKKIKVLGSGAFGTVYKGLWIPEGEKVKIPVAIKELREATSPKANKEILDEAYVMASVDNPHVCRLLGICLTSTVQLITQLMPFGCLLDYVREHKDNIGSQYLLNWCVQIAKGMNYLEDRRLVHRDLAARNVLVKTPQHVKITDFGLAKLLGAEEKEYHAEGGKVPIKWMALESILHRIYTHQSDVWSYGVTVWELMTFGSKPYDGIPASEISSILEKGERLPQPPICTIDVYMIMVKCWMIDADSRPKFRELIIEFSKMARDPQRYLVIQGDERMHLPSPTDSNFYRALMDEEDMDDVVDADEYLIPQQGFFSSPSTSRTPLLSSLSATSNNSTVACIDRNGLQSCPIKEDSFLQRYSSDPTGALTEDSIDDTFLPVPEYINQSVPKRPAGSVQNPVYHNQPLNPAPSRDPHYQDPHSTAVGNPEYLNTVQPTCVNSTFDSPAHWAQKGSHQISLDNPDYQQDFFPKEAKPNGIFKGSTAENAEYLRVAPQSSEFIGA
T2 sequence (Q06187 whole entry): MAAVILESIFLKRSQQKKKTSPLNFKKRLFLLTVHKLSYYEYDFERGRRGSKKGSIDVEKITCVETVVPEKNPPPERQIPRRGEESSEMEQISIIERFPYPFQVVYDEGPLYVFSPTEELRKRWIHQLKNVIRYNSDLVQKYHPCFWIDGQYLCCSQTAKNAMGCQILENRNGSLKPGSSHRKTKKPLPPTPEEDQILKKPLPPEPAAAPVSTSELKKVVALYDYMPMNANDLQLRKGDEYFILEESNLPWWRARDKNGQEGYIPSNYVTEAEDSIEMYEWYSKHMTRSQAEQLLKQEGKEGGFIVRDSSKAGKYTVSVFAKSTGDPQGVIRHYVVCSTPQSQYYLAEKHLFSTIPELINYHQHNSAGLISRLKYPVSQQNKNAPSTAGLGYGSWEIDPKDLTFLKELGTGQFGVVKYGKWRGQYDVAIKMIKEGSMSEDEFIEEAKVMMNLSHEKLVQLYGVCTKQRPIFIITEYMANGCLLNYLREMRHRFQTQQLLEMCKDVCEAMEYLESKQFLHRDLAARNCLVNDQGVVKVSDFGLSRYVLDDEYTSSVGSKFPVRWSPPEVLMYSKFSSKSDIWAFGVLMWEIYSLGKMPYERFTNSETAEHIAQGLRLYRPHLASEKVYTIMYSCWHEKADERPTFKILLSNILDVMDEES
Chain of LCK (P06239 whole entry, species assumed): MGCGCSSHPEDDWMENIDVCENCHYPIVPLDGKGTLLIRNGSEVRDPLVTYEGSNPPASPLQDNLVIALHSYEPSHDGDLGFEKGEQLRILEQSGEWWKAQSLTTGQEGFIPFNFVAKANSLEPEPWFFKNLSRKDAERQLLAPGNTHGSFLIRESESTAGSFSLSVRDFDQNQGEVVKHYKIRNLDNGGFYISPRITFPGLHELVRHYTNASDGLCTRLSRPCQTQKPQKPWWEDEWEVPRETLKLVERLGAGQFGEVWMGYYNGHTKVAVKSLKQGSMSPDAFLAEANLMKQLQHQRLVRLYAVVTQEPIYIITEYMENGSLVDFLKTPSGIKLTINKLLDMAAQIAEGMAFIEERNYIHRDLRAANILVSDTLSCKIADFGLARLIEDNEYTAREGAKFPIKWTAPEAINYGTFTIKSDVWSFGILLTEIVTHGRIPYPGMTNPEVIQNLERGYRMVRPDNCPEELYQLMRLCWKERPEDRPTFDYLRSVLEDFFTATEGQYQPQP

Row | IC50 (JAK3) [nM] | IC50 (Btk [1]) [nM] | IC50 (Btk [2]) [nM] | IC50 (EGFR) [nM] | IC50 (LCK) [nM] | SMILES
1 | > 1000 | ≤ 10 | ≤ 10 | 100 to 1000 | 100 to 1000 | CC#CC(=O)N1CC[C@@H](n2nc(-c3ccc(C(=O)Nc4cc(C(F)(F)F)ccn4)cc3)c3c(N)ncnc32)C1 [Compound ID 1, (R)-4-(4-amino-1-(1-but-2-ynoylpyrrolidin-3-yl)-1H-pyrazolo[3,4-d]pyrimidin-3-yl)-N-(4-(trifluoromethyl)pyridin-2-yl)benzamide]
2 | > 1000 | ≤ 10 | ≤ 10 | > 1000 | 100 to 1000 | CC#CC(=O)N1CC[C@@H](n2nc(-c3ccc(C(=O)Nc4cc(C)ccn4)cc3)c3c(N)ncnc32)C1 [Compound ID 2, (R)-4-(4-amino-1-(1-but-2-ynoylpyrrolidin-3-yl)-1H-pyrazolo[3,4-d]pyrimidin-3-yl)-N-(4-methylpyridin-2-yl)benzamide]
3 | > 1000 | ≤ 10 | ≤ 10 | 100 to 1000 | 10 to 100 | CC#CC(=O)N1CC[C@@H](n2nc(-c3ccc(C(=O)Nc4ccccn4)cc3)c3c(N)ncnc32)C1 [Compound ID 3, (R)-4-(4-amino-1-(1-but-2-ynoylpyrrolidin-3-yl)-1H-pyrazolo[3,4-d]pyrimidin-3-yl)-N-(pyridin-2-yl)benzamide]
4 | > 1000 | ≤ 10 | ≤ 10 | > 1000 | 100 to 1000 | CC#CC(=O)N1CC[C@@H](n2nc(-c3ccc(C(=O)Nc4cc(C(C)C)ccn4)cc3)c3c(N)ncnc32)C1 [Compound ID 4, (R)-4-(4-amino-1-(1-but-2-ynoylpyrrolidin-3-yl)-1H-pyrazolo[3,4-d]pyrimidin-3-yl)-N-(4-isopropylpyridin-2-yl)benzamide]
5 | > 1000 | ≤ 10 | ≤ 10 | > 1000 | 100 to 1000 | CC#CC(=O)N1CC[C@@H](n2nc(-c3ccc(C(=O)Nc4cc(C#N)ccn4)cc3)c3c(N)ncnc32)C1 [Compound ID 5, (R)-4-(4-amino-1-(1-but-2-ynoylpyrrolidin-3-yl)-1H-pyrazolo[3,4-d]pyrimidin-3-yl)-N-(4-cyanopyridin-2-yl)benzamide]
6 | > 1000 | ≤ 10 | ≤ 10 | > 1000 | 100 to 1000 | CC#CC(=O)N1CCC[C@@H](n2nc(-c3ccc(C(=O)Nc4cc(C(C)C)ccn4)cc3)c3c(N)ncnc32)C1 [Compound ID 6, (R)-4-(4-amino-1-(1-but-2-ynoylpiperidin-3-yl)-1H-pyrazolo[3,4-d]pyrimidin-3-yl)-N-(4-isopropylpyridin-2-yl)benzamide]
7 | > 1000 | ≤ 10 | ≤ 10 | > 1000 | > 1000 | CCC#CC(=O)N1CC[C@@H](n2nc(-c3ccc(C(=O)Nc4cc(C)ccn4)cc3)c3c(N)ncnc32)C1 [Compound ID 7, (R)-4-(4-amino-1-(1-pent-2-ynoylpyrrolidin-3-yl)-1H-pyrazolo[3,4-d]pyrimidin-3-yl)-N-(4-methylpyridin-2-yl)benzamide]
8 | > 1000 | ≤ 10 | ≤ 10 | 100 to 1000 | > 1000 | Cc1ccnc(NC(=O)c2ccc(-c3nn([C@@H]4CCN(C(=O)C#CC5CC5)C4)c4ncnc(N)c34)cc2)c1 [Compound ID 8, (R)-4-(4-amino-1-(1-(3-cyclopropylpropioloyl)pyrrolidin-3-yl)-1H-pyrazolo[3,4-d]pyrimidin-3-yl)-N-(4-methylpyridin-2-yl)benzamide]
9 | – | ≤ 10 | ≤ 10 | 10 to 100 | 10 to 100 | CC#CC(=O)N1CCC[C@@H](n2nc(-c3ccc(C(=O)Nc4nccs4)cc3)c3c(N)ncnc32)C1 [Compound ID 16, (R)-4-(4-amino-1-(1-but-2-ynoylpiperidin-3-yl)-1H-pyrazolo[3,4-d]pyrimidin-3-yl)-N-(thiazol-2-yl)benzamide]
10 | – | ≤ 10 | ≤ 10 | ≤ 10 | 100 to 1000 | CC#CC(=O)N1CCC[C@@H](n2nc(-c3ccc(C(=O)Nc4ncc(C)s4)cc3)c3c(N)ncnc32)C1 [Compound ID 17, (R)-4-(4-amino-1-(1-but-2-ynoylpiperidin-3-yl)-1H-pyrazolo[3,4-d]pyrimidin-3-yl)-N-(5-methylthiazol-2-yl)benzamide]
11 | – | ≤ 10 | ≤ 10 | ≤ 10 | 100 to 1000 | C=CC(=O)N1CC[C@@H](n2nc(-c3ccc(C(=O)Nc4ccccn4)cc3)c3c(N)ncnc32)C1 [Compound ID 22, (R)-4-(1-(1-acryloylpyrrolidin-3-yl)-4-amino-1H-pyrazolo[3,4-d]pyrimidin-3-yl)-N-(pyridin-2-yl)benzamide]
